The text below walks through data of US8088818B2, “Catechol-based derivatives for treating or preventing diabetics” (National Taiwan University, priority 2006, dated 2012).

What is called melting point is the temperature, or range, at which the solid turns liquid.

One series deals with coronary artery. Put plainly: Flow rate of the coronary artery in the isolated perfused rat heart (Langendorff). The conditions noted are these: for effect on coronary flow rate (in words): Wistar rats, Tables 15 and 16; for coronary flow: isolated Wistar rat heart. As for the experimental part:
Each of the male Wistar rats weighs about 200-250 grams, and is anesthetized with 25 mg/kg pentobarbital and 16 mg/kg heparin by injecting into the abdominal cavity. After falling asleep, separate the cervical vertebra and immediately take the heart out hanging on the constant pouring pressure circulation instrument (Langendorff, AD Instruments Pty Ltd, ML870B2) and fill a 37[…] pouring solution of 95% of oxygen and 5% of carbon dioxide with the artery (119.7 mM NaCl, 23.8 mM NaHCO3, 5.6 mM glucose, 1.2 mM CaCl2, 1.1 mM MgCl2, 0.3 mM NaH2PO4, and 5.0 mM KCl), which washes the heart and clean out the blood water by pouring in a reverse direction. The rate of the reverse pouring is 10 ml/min, followed by maintaining the pouring pressure of the coronary artery at 80 mmHg. After balancing for thirty minutes, measure the rate of the pouring solution flowing in the heart, and observe the change of the rate the pouring solution flowing in the heart while the testing drug is added.

A further series has as its system Normal rats. Put plainly: Blood sugar lowering in normal rats after oral administration. The class given is in vivo, rat. The following applies: 0.5 mg/kg oral; for % decrease in plasma glucose: Table 14; for Pre-treatment Plasma glucose: pre-treatment (baseline). How it is done:
(a) Male Wistar rats are provided from the National Laboratory Animal Breeding and Research Center (Taipei, Taiwan), each of whose weight is about 200-250 grams, and the average age thereof is above 8 weeks. They were housed under conditions of constant temperature (25±1[…]) and controlled illumination (light time and dark time are respectively 12 hours). Food and water were available.
(§1) (d) The administration: Dissolve the medicine equivalently in deionized water, and then administrate the mentioned solution into the normal and diabetic rats by an orally perfusion. Keep with the desired concentration of the perfusion amount by taking suitable amount of the medicine solution according to the weight of the different animal.
(§2) The rats to be experimented should undergo a starvation for 8-12 hours overnight. Next day, the rats are anesthetized with 30 mg/kg pentobarbital by injecting into the abdominal cavity. After the rats fall asleep, fix the rats on the board with the rubber band. Open the groin, find the veins, bleed 0.1 ml blood from an empty stomach, and then feed the medicine into the body of the rats by taking orally. After 90 minutes, bleed and perform a centrifugation (13,000 rpm, 5 minutes) to separate the serum and the plasma. Take the 10 μl supernatant of the serum and add 1 ml reagent of the glucose kit thereinto by gently mixing. React for 5 minutes at 37 °C, followed by detecting the value of the blood sugar by means of BST330 based on the different absorption level. […] The value of the blood sugar (mg/dL) is calculated by comparing the level of redness with contrasting the standard curve.
(§3) (The value of blood sugar at postadministration)−(The value of blood sugar at preadministration)/(The value of blood sugar at preadministration)×100%
The results of the experiments are presented in the average value±the standard error (mean±SE), and the variations therebetween are evaluated according to the Student's t-test, while the variations thereamong are evaluated according to one-way ANOVA and Bonferroni's t-test, wherein P<0.05 is deemed to have apparent differences.

The test system of the next series is Type 2 diabetic rats. Put plainly: Blood sugar lowering in insulin-induced type 2 diabetic rats after oral administration. The following applies: type II diabetic rats, 1 mg/kg, p.o., 90 minutes. Type of series: in vivo, rat. How it is done:
(c) Insulin-induced type 2 diabetic rats: the abdominal cavity of the male Wistar rats of 12 weeks age are injected with 0.5 IU/kg long-term insulin (MonotardR HM) three times a day for fourteen days. Then, the 10 mg/kg tolbutamide, an anti-diabetic drug of sulfonylurea class, is injected into the abdominal cavity. Phlebotomize 0.1 ml blood respectively at the preadministration and the postadministration of sixty minutes, and calculate the reduced value of the blood sugar. If the variation of the ability of lowering blood sugar is less than 10%, which is deemed as the type II (insulin resistance) diabetes rat.
as §1, §2, §3

For series [1] the following is noted: literature; cited from earlier work.

With `CN(Cc1ccccc1)C(=O)C=Cc1ccc(O)c(O)c1` [Compound 642A], in the series with coronary artery, the “effect on coronary flow rate (in words)” value is on record as “capable of increasing the coronary flow rate”. Besides, the coronary flow with coronary artery (conc. 0 (baseline)) worked out at 10.0 ± 0.7 mL/min; with coronary artery (conc. 0.1 (unit printed .[…]M)), 12.9 ± 0.4 mL/min; in the series on coronary artery (conc. 0.3 (unit printed .[…]M)), 14.2 ± 0.8 mL/min; in the series with coronary artery (conc. 1 (unit printed .[…]M)), 16.8 ± 1.6 mL/min; with coronary artery (conc. 3 (unit printed .[…]M)) it was 19.8 ± 2.1 mL/min.
Consider `O=C(/C=C/c1ccc2c(c1)OCO2)NCCc1ccccc1` [615 (37)], for which, in the series on Normal rats, the “% decrease in plasma glucose” value is 23.9 ± 2.1 %, the “Post-treatment Plasma glucose” value is recorded as 105.2 ± 3.5 mg/dL and the “Pre-treatment Plasma glucose” value was found to be 138.3 ± 4.1 mg/dL.
Consider `CN(CCc1ccccc1)C(=O)C=Cc1ccc(O)c(O)c1` [Compound 642B], for which, in the series on coronary artery, the “effect on coronary flow rate (in words)” value is “capable of increasing the coronary flow rate”. The coronary flow in the series with coronary artery (conc. 0 (baseline)) was determined as 9.8 ± 2.1 mL/min; in the series on coronary artery (conc. 0.1 (unit printed .[…]M)) it was 9.8 ± 2.1 mL/min; in the series on coronary artery (conc. 0.3 (unit printed .[…]M)), 10.4 ± 1.7 mL/min; in the series on coronary artery (conc. 1 (unit printed .[…]M)) it was 12.8 ± 1.9 mL/min; in the series with coronary artery (conc. 3 (unit printed .[…]M)), 17.4 ± 1.9 mL/min; in the series with coronary artery (conc. 10 (unit printed .[…]M)), 23.2 ± 1.7 mL/min.
For the molecule `COc1cc(/C=C/C(=O)NCCc2ccccc2)ccc1O` [Compound 640], the “effect on coronary flow rate (in words)” value in the series on coronary artery is recorded as “capable of increasing the coronary flow rate”. The coronary flow is 9.7 ± 1.3 mL/min with coronary artery (conc. 0 (baseline)); 10.1 ± 1.5 mL/min in the series with coronary artery (conc. 0.1 (unit printed .[…]M)); 10.2 ± 1.4 mL/min in the series with coronary artery (conc. 0.3 (unit printed .[…]M)); 10.3 ± 1.5 mL/min in the series with coronary artery (conc. 1 (unit printed .[…]M)); 11.0 ± 1.5 mL/min in the series on coronary artery (conc. 3 (unit printed .[…]M)); 14.6 ± 2.2 mL/min in the series on coronary artery (conc. 10 (unit printed .[…]M)).
In the case of `CN(CCOc1ccc(CC2SC(=O)NC2=O)cc1)c1ccccn1` (centres unmarked) [Rosiglitazone, reference compound], the “% decrease in plasma glucose” value with Type 2 diabetic rats is 15.6 ± 6.3%.
For `O=C(C=Cc1ccc(O)c(O)c1)NCc1cccc(F)c1` [Compound 638I], the “effect on coronary flow rate (in words)” value in the series with coronary artery is “capable of increasing the coronary flow rate”. For the same molecule, the coronary flow is 7.4 ± 0.7 mL/min in the series with coronary artery (conc. 0 (baseline)); 7.1 ± 0.5 mL/min in the series on coronary artery (conc. 0.1 (unit printed .[…]M)); 7.1 ± 0.5 mL/min in the series with coronary artery (conc. 0.3 (unit printed .[…]M)); 7.6 ± 0.8 mL/min with coronary artery (conc. 1 (unit printed .[…]M)); 8.2 ± 0.8 mL/min in the series on coronary artery (conc. 3 (unit printed .[…]M)); 9.3 ± 0.7 mL/min in the series on coronary artery (conc. 10 (unit printed .[…]M)).
As to `O=C(C=Cc1ccc(O)c(O)c1)NCCc1ccc(Br)cc1` [638 B], in the series on Normal rats, the “% decrease in plasma glucose” value is 21.4 ± 3.0 %, the “Post-treatment Plasma glucose” value came to 76.8 ± 4.1 mg/dL and the “Pre-treatment Plasma glucose” value is 98.1 ± 5.2 mg/dL.
Turning to `COc1cc(CNC(=O)CCCC/C=C/C(C)C)ccc1O` [capsaicin], in series [1], the “lowering blood sugar (earlier studies)” value is recorded as “effective in lowering blood sugar”.
Turning to `CC(=O)Oc1ccc(C=CC(=O)NCCc2ccccc2)cc1OC(C)=O` [639 B], in the series on Normal rats, the “% decrease in plasma glucose” value turned out to be 28.1 ± 3.3 %, the “Post-treatment Plasma glucose” value was 84.0 ± 5.0 mg/dL and the “Pre-treatment Plasma glucose” value is 116.7 ± 2.8 mg/dL. In addition, in the series with coronary artery, the “effect on coronary flow rate (in words)” value is on record as “capable of increasing the coronary flow rate”. The molecule also returned a coronary flow with coronary artery (conc. 0 (baseline)) of 7.4 ± 0.2 mL/min. The molecule also displayed a coronary flow in the series with coronary artery (conc. 1 (unit printed .[…]M)) of 9.0 ± 0.4 mL/min. The same molecule gave a coronary flow in the series on coronary artery (conc. 3 (unit printed .[…]M)) of 11.6 ± 0.6 mL/min.
On to `COc1ccc(CCNC(=O)C=Cc2ccc(O)c(O)c2)cc1OC` [638 A], for which, in the series with Normal rats, the “% decrease in plasma glucose” value was 18.1 ± 2.9%, the “Post-treatment Plasma glucose” value worked out at 83.6 ± 1.9 mg/dL and the “Pre-treatment Plasma glucose” value is given as 102.5 ± 2.4 mg/dL.
As to `O=C(O)/C=C/c1ccc(O)c(O)c1` [caffeic acid], in series [1], the “lowering blood sugar (earlier studies)” value was “effective in lowering blood sugar”.
As to `CCCCNC(=O)C=Cc1ccc2c(c1)OCO2`, the melting point lay in the range of 82 to 83 °C.
In the case of `O=C(C=Cc1ccc(O)c(O)c1)Nc1ccc(O)cc1` [Compound 638H], the coronary flow with coronary artery (conc. 0 (baseline)) was determined as 9.0 ± 0.3 mL/min; in the series with coronary artery (conc. 0.1 (unit printed .[…]M)), 9.0 ± 0.5 mL/min; with coronary artery (conc. 0.3 (unit printed .[…]M)), 8.9 ± 0.5 mL/min; in the series on coronary artery (conc. 1 (unit printed .[…]M)), 9.1 ± 0.5 mL/min; in the series on coronary artery (conc. 3 (unit printed .[…]M)), 10.1 ± 0.7 mL/min; with coronary artery (conc. 10 (unit printed .[…]M)), 13.1 ± 1.0 mL/min.
